Test results published in patent US11180462B2, “Microbiocidal oxadiazole derivatives” (SYNGENTA PARTICIPATIONS AG, priority 2015, dated 2021).
Read-outs that look alike come from different tables or passages of the source.

Columns and labels:
[1] = tested on: Puccinia recondita f. Sp. Tritici; assay: Fungicidal activity against Puccinia recondita f. sp. tritici / wheat / leaf disc curative (brown rust); assay type: in vivo; details: foliar, 24 h, read-out: disease control
In short: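 Wheat cv. Kanzler leaf segments on agar, inoculated with rust spore suspension, kept dark at 19° C and 75% RH; formulated compound sprayed 1 day post-inoculation. Incubated 19° C, 75% RH, 12 h light/12 h dark; percent disease control vs untreated scored 6 to 8 days after application.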

[2] = tested on: Glomerella lagenarium (Colletotrichum lagenarium); assay: Fungicidal activity against Glomerella lagenarium (Colletotrichum lagenarium) liquid culture / cucumber / preventative (anthracnose); assay type: cell-based; details: Colletotrichum orbiculare, read-out: disease control
In short: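 Photometric read-out of fungal growth after 2–7 days, expressed as percent antifungal activity versus untreated check. Cryo-stored conidia in PDB; compound at 20 ppm; dark, 24 °C, 96% RH.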

[3] = tested on: Puccinia recondita f. Sp. Tritici; assay: Fungicidal activity against Puccinia recondita f. sp. tritici / wheat / leaf disc preventative (brown rust); assay type: in vivo; details: foliar, read-out: disease control
In short: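 Compound application precedes infection: segments of wheat cv. Kanzler, sprayed at 200 ppm, are inoculated with a spore suspension after 1 day. Incubation is at 19° C. with 75% relative humidity and 12 h light/12 h darkness, and control versus untreated leaves is rated 7 to 9 days post-application.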

[4] = 200 ppm in the applied formulation, wheat leaf segments, curative (applied 1 day after inoculation), compared to untreated control leaf disks
[5] = 20 ppm in the applied formulation, liquid culture (PDB), growth inhibition measured photometrically after 3 to 4 days, compared to untreated control
[6] = 200 ppm in the applied formulation, wheat leaf segments, preventative, compared to untreated control leaf disks

CC1(C(=O)N(Cc2ccc(-c3noc(C(F)(F)F)n3)cc2)Cc2ccco2)COC1 [Compound 1.468, N-(2-furylmethyl)-3-methyl-N-[[4-[5-(trifluoromethyl)-1,2,4-oxadiazol-3-yl]phenyl]methyl]-oxetane-3-carboxamide]
≥ 80%: pest or weed control at 200 ppm [1, 4] | inhibition of growth at 20 ppm [2, 5] | pest or weed control at 200 ppm [3, 6]

O=C(C1CCCO1)N(Cc1ccc(-c2noc(C(F)(F)F)n2)cc1)Cc1ccco1 (stereo not drawn) [Compound 1.469, N-(2-furylmethyl)-N-[[4-[5-(trifluoromethyl)-1,2,4-oxadiazol-3-yl]phenyl]methyl]-tetrahydrofuran-2-carboxamide]
≥ 80%: pest or weed control at 200 ppm [1, 4] | inhibition of growth at 20 ppm [2, 5] | pest or weed control at 200 ppm [3, 6]

O=C(C1OCCO1)N(Cc1ccc(-c2noc(C(F)(F)F)n2)cc1)Cc1ccco1 [Compound 1.473, N-(2-furylmethyl)-N-[[4-[5-(trifluoromethyl)-1,2,4-oxadiazol-3-yl]phenyl]methyl]-1,3-dioxolane-2-carboxamide]
≥ 80%: pest or weed control at 200 ppm [1, 4] | inhibition of growth at 20 ppm [2, 5] | pest or weed control at 200 ppm [3, 6]

O=C(C1CC1)N(Cc1ccc(-c2noc(C(F)(F)F)n2)cc1)Cc1ccco1 [Compound 1.474, N-(2-furylmethyl)-N-[[4-[5-(trifluoromethyl)-1,2,4-oxadiazol-3-yl]phenyl]methyl]-cyclopropane-carboxamide]
≥ 80%: pest or weed control at 200 ppm [1, 4] | inhibition of growth at 20 ppm [2, 5] | pest or weed control at 200 ppm [3, 6]

C=CCN(Cc1ccc(-c2noc(C(F)(F)F)n2)cc1)C(=O)CNC(C)=O [Compound 1.481, 2-acetamido-N-allyl-N-[[4-[5-(trifluoromethyl)-1,2,4-oxadiazol-3-yl]phenyl]methyl]-acetamide]
≥ 80%: pest or weed control at 200 ppm [1, 4] | inhibition of growth at 20 ppm [2, 5] | pest or weed control at 200 ppm [3, 6]

C=CCN(Cc1ccc(-c2noc(C(F)(F)F)n2)cc1)C(=O)CC#N [Compound 1.490, N-allyl-2-cyano-N-[[4-[5-(trifluoromethyl)-1,2,4-oxadiazol-3-yl]phenyl]methyl]-acetamide]
≥ 80%: pest or weed control at 200 ppm [1, 4] | inhibition of growth at 20 ppm [2, 5] | pest or weed control at 200 ppm [3, 6]

CCN(Cc1ccc(-c2noc(C(F)(F)F)n2)cc1)C(=O)CNC(C)=O [Compound 1.501, 2-acetamido-N-ethyl-N-[[4-[5-(trifluoromethyl)-1,2,4-oxadiazol-3-yl]phenyl]methyl]-acetamide]
≥ 80%: pest or weed control at 200 ppm [1, 4] | inhibition of growth at 20 ppm [2, 5] | pest or weed control at 200 ppm [3, 6]

CCN(Cc1ccc(-c2noc(C(F)(F)F)n2)cc1)C(=O)CCl [Compound 1.502, 2-chloro-N-ethyl-N-[[4-[5-(trifluoromethyl)-1,2,4-oxadiazol-3-yl]phenyl]methyl]-acetamide]
≥ 80%: pest or weed control at 200 ppm [1, 4] | inhibition of growth at 20 ppm [2, 5] | pest or weed control at 200 ppm [3, 6]

CN(Cc1ccc(-c2noc(C(F)(F)F)n2)cc1)C(=O)CCl [Compound 1.522, 2-chloro-N-methyl-N-[[4-[5-(trifluoromethyl)-1,2,4-oxadiazol-3-yl]phenyl]methyl]-acetamide]
≥ 80%: pest or weed control at 200 ppm [1, 4] | inhibition of growth at 20 ppm [2, 5] | pest or weed control at 200 ppm [3, 6]

COC(C)C(=O)N(C)Cc1ccc(-c2noc(C(F)(F)F)n2)cc1 (stereo not drawn) [Compound 1.530, 2-methoxy-N-methyl-N-[[4-[5-(trifluoromethyl)-1,2,4-oxadiazol-3-yl]phenyl]methyl]-propanamide]
≥ 80%: pest or weed control at 200 ppm [1, 4] | inhibition of growth at 20 ppm [2, 5] | pest or weed control at 200 ppm [3, 6]

O=C(C1CC1)N(CCO)Cc1ccc(-c2noc(C(F)(F)F)n2)cc1 [Compound 1.609, N-(2-hydroxyethyl)-N-[[4-[5-(trifluoromethyl)-1,2,4-oxadiazol-3-yl]phenyl]methyl]-cyclopropane-carboxamide]
≥ 80%: pest or weed control at 200 ppm [1, 4] | inhibition of growth at 20 ppm [2, 5] | pest or weed control at 200 ppm [3, 6]

COCCC(=O)N(CCO)Cc1ccc(-c2noc(C(F)(F)F)n2)cc1 [Compound 1.713, N-(2-hydroxyethyl)-3-methoxy-N-[[4-[5-(trifluoromethyl)-1,2,4-oxadiazol-3-yl]phenyl]methyl]-propanamide]
≥ 80%: pest or weed control at 200 ppm [1, 4] | inhibition of growth at 20 ppm [2, 5] | pest or weed control at 200 ppm [3, 6]

CON(Cc1ccc(-c2noc(C(F)(F)F)n2)cc1)C(=O)COC(F)F [Compound 1.785, 2-(difuoromethoxy)-N-methoxy-N-[[4-[5-(trifluoromethyl)-1,2,4-oxadiazol-3-yl]phenyl]methyl]-acetamide]
≥ 80%: pest or weed control at 200 ppm [1, 4] | inhibition of growth at 20 ppm [2, 5] | pest or weed control at 200 ppm [3, 6]

CON(Cc1ccc(-c2noc(C(F)(F)F)n2)cc1)C(=O)C(C)NC(C)=O (stereo not drawn) [Compound 1.795, 2-acetamido-N-methoxy-N-[[4-[5-(trifluoromethyl)-1,2,4-oxadiazol-3-yl]phenyl]methyl]-propanamide]
≥ 80%: pest or weed control at 200 ppm [1, 4] | inhibition of growth at 20 ppm [2, 5] | pest or weed control at 200 ppm [3, 6]

CCOC(=O)N(Cc1ccc(-c2noc(C(F)(F)F)n2)cc1)OC [Compound 2.1, ethyl N-methoxy-N-[[4-[5-(trifluoromethyl)-1,2,4-oxadiazol-3-yl]phenyl]methyl]-carbamate]
≥ 80%: pest or weed control at 200 ppm [1, 4] | inhibition of growth at 20 ppm [2, 5] | pest or weed control at 200 ppm [3, 6]

CON(Cc1ccc(-c2noc(C(F)(F)F)n2)cc1)C(=O)Oc1ccccc1 [Compound 2.6, phenyl N-methoxy-N-[[4-[5-(trifluoromethyl)-1,2,4-oxadiazol-3-yl]phenyl]methyl]-carbamate]
≥ 80%: pest or weed control at 200 ppm [1] | inhibition of growth at 20 ppm [2] | pest or weed control at 200 ppm [3]

CON(Cc1ccc(-c2noc(C(F)(F)F)n2)cc1)C(=O)OC(C)C [Compound 2.14, isopropyl N-methoxy-N-[[4-[5-(trifluoromethyl)-1,2,4-oxadiazol-3-yl]phenyl]methyl]-carbamate]
≥ 80%: pest or weed control at 200 ppm [1, 4] | inhibition of growth at 20 ppm [2, 5] | pest or weed control at 200 ppm [3, 6]

CON(Cc1ccc(-c2noc(C(F)(F)F)n2)cc1)C(=O)OCCCCl [Compound 2.16, 3-chloropropyl N-methoxy-N-[[4-[5-(trifluoromethyl)-1,2,4-oxadiazol-3-yl]phenyl]methyl]-carbamate]
≥ 80%: pest or weed control at 200 ppm [1, 4] | inhibition of growth at 20 ppm [2, 5] | pest or weed control at 200 ppm [3, 6]

COC(=O)N(Cc1ccc(-c2noc(C(F)(F)F)n2)cc1)CC(F)(F)F [Compound 2.22, methyl N-(2,2,2-trifluoroethyl)-N-[[4-[5-(trifluoromethyl)-1,2,4-oxadiazol-3-yl]phenyl]methyl]-carbamate]
≥ 80%: pest or weed control at 200 ppm [1, 4] | inhibition of growth at 20 ppm [2, 5] | pest or weed control at 200 ppm [3, 6]

CON(Cc1ccc(-c2noc(C(F)(F)F)n2)cc1)C(=O)NCC(C)(C)C [Compound 3.10, 3-(2,2-dimethylpropyl)-1-methoxy-1-[[4-[5-(trifluoromethyl)-1,2,4-oxadiazol-3-yl]phenyl]methyl]urea]
≥ 80%: pest or weed control at 200 ppm [1, 4] | inhibition of growth at 20 ppm [2, 5] | pest or weed control at 200 ppm [3, 6]

CCOC(=O)CNC(=O)N(Cc1ccc(-c2noc(C(F)(F)F)n2)cc1)OC [Compound 3.49, ethyl 2-[[methoxy-[[4-[5-(trifluoromethyl)-1,2,4-oxadiazol-3-yl]phenyl]methyl]-carbamoyl]-amino]acetate]
≥ 80%: pest or weed control at 200 ppm [1, 4] | inhibition of growth at 20 ppm [2, 5] | pest or weed control at 200 ppm [3, 6]
